Test results: ChEMBL document CHEMBL6074662, “Antibacterial, Antibiofilm, and Anti-inflammatory Effects of a Novel Thrombin-Derived Peptide in Sepsis Models: Insights into Underlying Mechanisms” (J Med Chem, 2024)
Active and inactive are the calls of the source. The rule behind the calls is not given here.

Legend:
Bacillus subtilis = assay: Antibacterial activity against Bacillus subtilis KCTC 3068 incubated for 24 hrs by CLSI based broth microdilution method; assay type: functional
Staphylococcus aureus [1] = assay: Antibacterial activity against Staphylococcus aureus KCTC 1621 incubated for 24 hrs by CLSI based broth microdilution method; assay type: functional
Escherichia coli [2] = assay: Antibacterial activity against Escherichia coli KCTC 1682 incubated for 24 hrs in presence of human serum by CLSI based broth microdilution method; assay type: functional
Escherichia coli [3] = assay: Antibacterial activity against Escherichia coli KCTC 1682 incubated for 24 hrs in presence of FeCl3 by CLSI based broth microdilution method; assay type: functional
Enterococcus faecium = assay: Antibacterial activity against vancomycin-resistant Enterococcus faecium ATCC 51559 incubated for 24 hrs by CLSI based broth microdilution method; assay type: functional
Pseudomonas aeruginosa [4] = assay: Antibacterial activity against Pseudomonas aeruginosa KCTC 1637 incubated for 24 hrs by CLSI based broth microdilution method; assay type: functional
Pseudomonas aeruginosa [5] = assay: Antibacterial activity against multidrug-resistant Pseudomonas aeruginosa CCARM 2109 incubated for 24 hrs by CLSI based broth microdilution method; assay type: functional
Acinetobacter baumannii [6] = assay: Antibacterial activity against multidrug-resistant Acinetobacter baumannii 329-53 incubated for 24 hrs by CLSI based broth microdilution method; assay type: functional
Acinetobacter baumannii [7] = assay: Antibacterial activity against multidrug-resistant Acinetobacter baumannii 329-97 incubated for 24 hrs by CLSI based broth microdilution method; assay type: functional
Acinetobacter baumannii [8] = assay: Antibacterial activity against carbapenem-resistant Acinetobacter baumannii CCARM 12005 incubated for 24 hrs by CLSI based broth microdilution method; assay type: functional
Acinetobacter baumannii [9] = assay: Antibacterial activity against carbapenem-resistant Acinetobacter baumannii NMS 1915 incubated for 24 hrs by CLSI based broth microdilution method; assay type: functional
[10] = Hemolytic activity in sheep RBC incubated for 1 hr by absorbance based assay; assay type: toxicity, cell-based, Ovis aries; conditions: erythrocyte
[11] = Hemolytic activity in sheep RBC at 256 uM incubated for 1 hr by absorbance based assay; assay type: toxicity, cell-based, Ovis aries, Erythrocyte; conditions: sheep red blood cells, read-out: Activity
Escherichia coli [12] = assay: Induction of cytoplasmic membrane potential in Escherichia coli KCTC 1682 at 0.5 to 1 times MIC measured for 500 secs by diSC3-5 dye based analysis; assay type: functional, organism-based; conditions: time 500.0 sec
Escherichia coli [13] = assay: Induction of outer membrane permeabilization in Escherichia coli KCTC 1682 by NPN dye based analysis; assay type: functional, organism-based
Escherichia coli [14] = assay: Induction of morphological change in Escherichia coli KCTC 1682 assessed as distorted irregular cells at MIC incubated for 4 hrs by SEM analysis; assay type: functional, organism-based
Pseudomonas aeruginosa [15] = assay: Inhibition of biofilm formation in multi-drug resistant Pseudomonas aeruginosa CCARM 2095 at 4 to 8 uM by crystal violet staining based analysis relative to control; assay type: functional; conditions: dose 4-8 µM
Pseudomonas aeruginosa [16] = assay: Eradication of biofilm formation in multi-drug resistant Pseudomonas aeruginosa CCARM 2095 at 32 uM incubated for 12 hrs by CLSM analysis relative to control; assay type: functional
Staphylococcus aureus [17] = assay: Antibacterial activity against methicillin-resistant Staphylococcus aureus CCARM 3089 incubated for 24 hrs by broth microdilution method; assay type: functional
Staphylococcus aureus [18] = assay: Synergistic antibacterial activity against methicillin-resistant Staphylococcus aureus CCARM 3089 assessed as MIC of Chloramphenicol incubated for 24 hrs by broth microdilution method; assay type: functional
Staphylococcus aureus [19] = assay: Synergistic antibacterial activity against methicillin-resistant Staphylococcus aureus CCARM 3089 incubated for 24 hrs in presence of Chloramphenicol by broth microdilution method; assay type: functional
Staphylococcus aureus [20] = assay: Synergistic antibacterial activity against methicillin-resistant Staphylococcus aureus CCARM 3089 assessed as fractional inhibitory concentration index by measuring ratio of MIC of compound in presence of Chloramphenicol to MIC to compound incubated for 24 hrs by broth microdilution method; assay type: functional
Staphylococcus aureus [21] = assay: Synergistic antibacterial activity against methicillin-resistant Staphylococcus aureus CCARM 3089 assessed as MIC of Oxacillin incubated for 24 hrs by broth microdilution method; assay type: functional
Staphylococcus aureus [22] = assay: Synergistic antibacterial activity against methicillin-resistant Staphylococcus aureus CCARM 3089 incubated for 24 hrs in presence of Oxacillin by broth microdilution method; assay type: functional
Staphylococcus aureus [23] = assay: Synergistic antibacterial activity against methicillin-resistant Staphylococcus aureus CCARM 3089 assessed as fractional inhibitory concentration index by measuring ratio of MIC of compound in presence of Oxacillin to MIC to compound incubated for 24 hrs by broth microdilution method; assay type: functional
Staphylococcus aureus [24] = assay: Synergistic antibacterial activity against methicillin-resistant Staphylococcus aureus CCARM 3089 assessed as fractional inhibitory concentration index incubated for 24 hrs in presence of Oxacillin by broth microdilution method; assay type: functional
Pseudomonas aeruginosa [25] = assay: Synergistic antibacterial activity against multi-drug resistant Pseudomonas aeruginosa CCARM 2095 assessed as MIC of Chloramphenicol incubated for 24 hrs by broth microdilution method; assay type: functional
Pseudomonas aeruginosa [26] = assay: Synergistic antibacterial activity against multi-drug resistant Pseudomonas aeruginosa CCARM 2095 assessed as fractional inhibitory concentration index by measuring ratio of MIC of Chloramphenicol in presence of compound to MIC to Chloramphenicol incubated for 24 hrs by broth microdilution method; assay type: functional
Pseudomonas aeruginosa [27] = assay: Synergistic antibacterial activity against multi-drug resistant Pseudomonas aeruginosa CCARM 2095 incubated for 24 hrs in presence of Chloramphenicol by broth microdilution method; assay type: functional
Pseudomonas aeruginosa [28] = assay: Synergistic antibacterial activity against multi-drug resistant Pseudomonas aeruginosa CCARM 2095 assessed as fractional inhibitory concentration index incubated for 24 hrs in presence of Chloramphenicol by broth microdilution method; assay type: functional
Pseudomonas aeruginosa [29] = assay: Synergistic antibacterial activity against multi-drug resistant Pseudomonas aeruginosa CCARM 2095 assessed as MIC of Ciprofloxacin incubated for 24 hrs by broth microdilution method; assay type: functional
Pseudomonas aeruginosa [30] = assay: Synergistic antibacterial activity against multi-drug resistant Pseudomonas aeruginosa CCARM 2095 assessed as fractional inhibitory concentration index by measuring ratio of MIC of Ciprofloxacin in presence of compound to MIC to Ciprofloxacin incubated for 24 hrs by broth microdilution method; assay type: functional
Pseudomonas aeruginosa [31] = assay: Synergistic antibacterial activity against multi-drug resistant Pseudomonas aeruginosa CCARM 2095 assessed as fractional inhibitory concentration index incubated for 24 hrs in presence of Ciprofloxacin by broth microdilution method; assay type: functional
Pseudomonas aeruginosa [32] = assay: Synergistic antibacterial activity against multi-drug resistant Pseudomonas aeruginosa CCARM 2095 assessed as fractional inhibitory concentration index by measuring ratio of MIC of compound in presence of Oxacillin to MIC to compound incubated for 24 hrs by broth microdilution method; assay type: functional
RAW264.7 [33] = assay: Anti-inflammatory activity in mouse RAW264.7 cells assessed as inhibition of LPS-induced NO production at 2.5 uM pretreated for 1 hr followed by LPS treatment for 16 hrs by Griess assay relative to control; assay type: functional; conditions: time 17 hrs
RAW264.7 [34] = assay: Anti-inflammatory activity in mouse RAW264.7 cells assessed as inhibition of LPS-induced NO production at 5 uM pretreated for 1 hr followed by LPS treatment for 16 hrs by Griess assay relative to control; assay type: functional; conditions: time 17 hrs
RAW264.7 [35] = assay: Anti-inflammatory activity in mouse RAW264.7 cells assessed as decrease in LPS-induced IL-6 level at 5 uM pretreated for 1 hr followed by LPS treatment for 16 hrs by ELISA relative to control; assay type: functional; conditions: time 17 hrs
RAW264.7 [36] = assay: Anti-inflammatory activity in mouse RAW264.7 cells assessed as decrease in LPS-induced ROS production at 2.5 uM pretreated for 1 hr followed by LPS treatment for 16 hrs by DCFDA staining based analysis relative to control; assay type: functional; conditions: time 17 hrs

H-GVFRLKKWLKKVKKWGK-NH2
MIC (Bacillus subtilis): 4 µM | MIC (Staphylococcus aureus [1]): 8 µM | MIC (Escherichia coli [2]): 32 µM | MIC (Escherichia coli [3]): 32 µM | MIC (Enterococcus faecium): 8 µM | MIC (Pseudomonas aeruginosa [4]): 8 µM | MIC (Pseudomonas aeruginosa [5]): 8 µM | MIC (Acinetobacter baumannii [6]): 4 µM | MIC (Acinetobacter baumannii [7]): 4 µM | MIC (Acinetobacter baumannii [8]): 4 µM | MIC (Acinetobacter baumannii [9]): 4 µM | HC10 [10]: > 256 µM | hemolysis at 1 h, 256 µM [11]: 9.1% | Activity (Escherichia coli [12]): Active | Activity (Escherichia coli [13]): Dose-dependent-effect | Activity (Escherichia coli [14]): Active | inhibition (INH) (Pseudomonas aeruginosa [15]): >50% | Activity (Pseudomonas aeruginosa [16]): >50% | MIC (Staphylococcus aureus [17]): 8 µM | MIC (Staphylococcus aureus [18]): 512 µM | MIC (Staphylococcus aureus [19]): 0.5 µM | FIC (Staphylococcus aureus [20]): 0.063 | MIC (Staphylococcus aureus [21]): 512 µM | MIC (Staphylococcus aureus [22]): 0.5 µM | FIC (Staphylococcus aureus [23]): 0.063 | fractional inhibitory concentration index (FICI) (Staphylococcus aureus [24]): 0.313 | MIC (Pseudomonas aeruginosa [25]): 512 µM | FIC (Pseudomonas aeruginosa [26]): 0.125 | MIC (Pseudomonas aeruginosa [27]): 2 µM | fractional inhibitory concentration index (FICI) (Pseudomonas aeruginosa [28]): 0.375 | MIC (Pseudomonas aeruginosa [29]): 256 µM | FIC (Pseudomonas aeruginosa [30]): 0.25 | fractional inhibitory concentration index (FICI) (Pseudomonas aeruginosa [31]): 0.75 | FIC (Pseudomonas aeruginosa [32]): 0.25 | inhibition at 2.5 µM (RAW264.7 [33]): 80.3% | inhibition at 5 µM (RAW264.7 [34]): 91.6% | inhibition at 5 µM (RAW264.7 [35]): 99% | inhibition at 2.5 µM (RAW264.7 [36]): 38.2%

H-GVFRLKKWIKKVIKKWGK-NH2
MIC (Bacillus subtilis): 4 µM | MIC (Staphylococcus aureus [1]): 8 µM | MIC (Escherichia coli [2]): 32 µM | MIC (Escherichia coli [3]): 32 µM | MIC (Enterococcus faecium): 8 µM | MIC (Pseudomonas aeruginosa [4]): 8 µM | MIC (Pseudomonas aeruginosa [5]): 16 µM | MIC (Acinetobacter baumannii [6]): 4 µM | MIC (Acinetobacter baumannii [7]): 2 µM | MIC (Acinetobacter baumannii [8]): 4 µM | MIC (Acinetobacter baumannii [9]): 2 µM | HC10 [10]: > 256 µM | hemolysis at 1 h, 256 µM [11]: 8.9% | Activity (Escherichia coli [12]): Active | Activity (Escherichia coli [13]): Dose-dependent-effect | Activity (Escherichia coli [14]): Active | inhibition (INH) (Pseudomonas aeruginosa [15]): >50% | Activity (Pseudomonas aeruginosa [16]): >50% | MIC (Staphylococcus aureus [17]): 8 µM | MIC (Staphylococcus aureus [18]): 256 µM | MIC (Staphylococcus aureus [19]): 2 µM | FIC (Staphylococcus aureus [20]): 0.25 | MIC (Staphylococcus aureus [21]): 512 µM | MIC (Staphylococcus aureus [22]): 0.5 µM | FIC (Staphylococcus aureus [23]): 0.063 | fractional inhibitory concentration index (FICI) (Staphylococcus aureus [24]): 0.313 | MIC (Pseudomonas aeruginosa [25]): 512 µM | FIC (Pseudomonas aeruginosa [26]): 0.125 | MIC (Pseudomonas aeruginosa [27]): 2 µM | fractional inhibitory concentration index (FICI) (Pseudomonas aeruginosa [28]): 0.375 | MIC (Pseudomonas aeruginosa [29]): 128 µM | FIC (Pseudomonas aeruginosa [30]): 0.125 | fractional inhibitory concentration index (FICI) (Pseudomonas aeruginosa [31]): 0.625 | FIC (Pseudomonas aeruginosa [32]): 0.25 | inhibition at 2.5 µM (RAW264.7 [33]): 80.7% | inhibition at 5 µM (RAW264.7 [34]): 89% | inhibition at 5 µM (RAW264.7 [35]): 44.4% | inhibition at 2.5 µM (RAW264.7 [36]): 14.9%
